From patent US20050180954A1, “Drug for treating bone disorders” (priority 1995, published 2005)

Tests used:
Assay type in all cases: cell-based, mouse
[1] = test system: osteoclast like cells from bone marrow cells of mice of ddy strain; assay: Formation of osteoclast like cells from bone marrow cells of mice of ddy strain
Experimental: Bone marrow cells were prepared in accordance with the method by Takahashi et al (Takahashi, N. et al., Endocrinology, 122, 1373, 1988). Male mice of ddy strain of 7 weeks old were exanguinated to death under ether anesthesia and the femur and the tibia of hind legs were collected from each mouse. The connective tissues on the surfaces of the bones were carefully removed, and both ends of each bone were cut off with scissors. The bone marrow cells were suspended in α-Minimum Essential Medium (α-MEM, Nissui Pharmaceuticals Co.) containing 10% pre-colostrum new born calf serum (Mitsubishi Chemical, hereinafter referred to as “JCS” for short) and the suspension was flushed out through a 25 G needle attached to a syringe to collect the suspension in a centrifugal tube. The collected suspension was washed by centrifugation in the same medium at 2000 rpm at 4° C. for 5 minutes. The precipitated cells were dispersed in the above-mentioned medium and the washing by centrifugation was repeated twice, thereby preparing bone marrow cells. Murine IFN-α (hereinafter referred to as “MuIFNα” for short), Lot. B13010, 106 units/ml/vial (Calbiochem-Novabiochem International, San Diego, Calif.), murine IFN-β (hereinafter referred to as “MuIFNβ” for short), Lot M-0034, 10 units/ml/vial (Toray Industries, Inc.) and murine IFNγ (hereinafter referred to as “MuIFNγ” for short), Lot 254F3, 2.06×10^6 units/ml (Genentech, Calif.) were respectively dissolved in 10% JCS-containing α-MEM (Nissui Pharmaceuticals Co.) to the desired concentrations. Active vitamin D3 ([…], Wako Pure Chemical Industries, Ltd., hereinafter referred to as “Vit D3” for short) was dissolved in argon-saturated ethanol, and the obtained solution was diluted so as to attain the final ethanol concentration of 0.1% in all of the culture systems.
The number of viable bone marrow cells was counted using tripam blue dye exclusion test and the bone marrow cells were diluted with α-MEM containing 10% JCS, 10^−8M Vit D3, 10^−7 M dexamethasone to a population density of 1.5×10^6 cells/ml, followed by placing the resulting suspension in each well in 24-well plates in an amount of 0.45 ml/well. To each well, 50 μl of the medium containing varying concentration of IFN was added to make the volume to 0.5 ml/well and culturing was begun. At every three days, 0.4 ml of the culture medium was removed from each well and 0.4 ml of fresh medium (the above-mentioned medium containing the respective concentration of IFN) was added. On Day 8 from the beginning of the culturing, the medium was removed and the cells were fixed with mixed solution of ethyl alcohol and diethyl ether (1:1) and the cells were stained with tartrate resistant acid phosphatase (TRAP), followed by counting TRAP positive multinuclear cells with a phase contrast microscope. […] The inhibition effect of IFNγ was stronger than that of IFNβ. That is, the inhibition concentration IC50 of IFNγ was not more than 0.1 units/ml, and that of IFNβ was 0.2 units/ml.
The effects of the three murine IFNs, that is, MuIFNβ, γ and α in terms of abilities to inhibit formation of osteoclast like cells from bone marrow cells in mice of ddy strain were compared. The test was carried out as in Example 1. All of the murine IFNs inhibited the formation of osteoclast like cells, and the effect was strong in the order of γ, β and α. […] Thus, the activity of IFNα to inhibit formation of osteoclasts was about 1/20 of that of IFNβ and about not more than 1/100 of that of IFNγ.

MC3T3-E1 cells [2] = assay: Quantification of calcium in calcified foci of MC3T3-E1; conditions: 1000 units/ml; MC3T3-E1, Day 14
Experimental: MC3T3-E1 cells were placed in each well in 24-well plates in an amount of 50,000 cells/well and cultured to confluency. The medium was removed and fresh α-MEM containing 10% JCS, 50 μg/ml of L-ascorbic acid and 10 mM β-glycerophosphate was added in an amount of 0.9 ml/well, followed by adding 0.1 ml/well of medium containing varying concentration of IFN. The medium was replaced with IFN-free medium every 4 days. On Day 14, the medium was removed and the cells were lightly washed with Hank's solution. Anhydrous ethanol was added in an amount of 1 ml/well and fixation was carried out at room temperature for 15 minuets. Then the anhydrous ethanol was replaced with fresh anhydrous ethanol in an amount of 1 ml/well and 5 minutes later, each well was dried in the air. Then 1N hydrochloric acid was added in an amount of 1 ml/well and extraction was carried out at room temperature for 30 minutes. The total contents of each well were transferred to an Eppendorf tube and centrifuged at 1800×g at 4° C. for 10 minutes The amount of calcium in the supernatant was measured by Calcium C Test Wako and the amount of inorganic phosphorus in the supernatant was measured by Phospha B Test Wako. […] The IC50 value was as low as about 10 units/ml (FIG. 5).

MC3T3-E1 cells [3] = assay: Proliferation of murine osteoblastic cells MC3T3-E1 (in vitro single administration); conditions: 10,000 units/ml; cell count on Day 6
Experimental: Murine osteoblast like cells MC3T3-E1 originated from C 57 BL/6 mouse (Kodama et al., Jap. J. Oral Biol., 23, 899, 1982) were washed with PBS(−) and the cells were dissociated by incubation in PBS(−) containing 0.1% pronase (Actinase E, Kaken Pharmaceuticals Co.), followed by dispersing the cells in α-MEM containing 10% JCS and 50 μg/ml of L-ascorbic acid (ASA). The ability to promote proliferation of cells was evaluated as follows. That is, MC3T3-E1 cells were placed in each well in 24-well plates (Corning) in an amount of 5000 cells/well. Then each IFN dilution was added to each well in an amount of 0.1 ml/well, and the culturing was begun. On Day 2, the medium was removed and the each IFN dilution was added in an amount of 0.5 ml/well (total amount of liquid: 0.5 ml/well). On Day 6, the medium was removed and the cells were washed with PBS(−) and a mixed enzyme solution of 0.1% pronase/0.1% collagenase was added to each well in an amount of 200 μl/well, followed by allowing to react at 37° C. for 15 minutes. Then α-MEM containing 10% fetal calf serum (Gibco, hereinafter referred to as “FCS” for short) was added in an amount of 300 μl/well to disperse the cells therein and the number of the cells was counted with a Coulter counter.

- inhibition concentration IC50 of formation of osteoclast like cells ([1]; Example 1, Vit D3 + dexamethasone, Day 8, TRAP positive multinuclear cells): 0.2 units/ml
- IC50 of inhibition of formation of osteoclast like cells ([1]; Example 8 comparison of three murine IFNs): about 0.9 units/ml
Substance: MuIFNβ: murine interferon β, Lot M-0034, prepared by Toray Industries, Inc. by genetic engineering technique
- inhibition of formation of osteoclast like cells ([1]; Example 1, Day 8, TRAP positive multinuclear cells): strongly inhibited formation of osteoclast like cells
- calcium deposition smaller than the control (MC3T3-E1 cells [2]): 20%
- inhibition of proliferation of MC3T3-E1 cells (MC3T3-E1 cells [3]): did not inhibit the proliferation at all
